Experimental data taken from patent US12121596B2, “Near infrared fluorescent dyes, formulations and related methods” (Washington University, priority 2019, dated 2024).
Positions of bridges follow the written chain, without caps; N, C: chain ends. Non-standard residues stand in square brackets, D forms with d. Residues, ends and D or L forms follow the SMILES beside them. *: point of attachment. X1 = CC1(C)C(/C=C/C=C/C=C/C=C2/N(CCC(=O)*)c3ccc4ccccc4c3C2(C)C)=[N+](CCC(=O)[O-])c2ccc3ccccc3c21

Target: ANXA2 (Homo sapiens, UniProt P07355)
Sequence (P07355 whole entry): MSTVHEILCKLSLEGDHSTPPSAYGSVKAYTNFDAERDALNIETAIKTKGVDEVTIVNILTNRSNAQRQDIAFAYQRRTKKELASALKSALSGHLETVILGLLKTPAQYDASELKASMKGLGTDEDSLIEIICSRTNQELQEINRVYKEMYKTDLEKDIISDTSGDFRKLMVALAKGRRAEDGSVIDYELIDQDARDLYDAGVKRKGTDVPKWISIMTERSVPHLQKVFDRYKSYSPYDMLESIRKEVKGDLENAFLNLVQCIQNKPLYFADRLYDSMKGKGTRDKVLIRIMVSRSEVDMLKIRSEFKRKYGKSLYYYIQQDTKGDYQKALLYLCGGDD
Assay: Microscale thermophoresis (MST), ANXA2 binding
Settings: read-out: apparent Kd, ANXA2
Description: Recombinant proteins and antibodies. Recombinant annexin A2, annexin A2 with glutathione-S-transferase (GST) tag, annexin A1, and annexin A3 proteins were purchased from MyBioSource, Inc. (San Diego, CA, USA). Purified ANXA2 protein and purified pANXA2 protein were gifts from Dr. Gabriel Bimme (Beth Israel Deaconess Medical Center, Boston, MA). Rabbit monoclonal anti-annexin A2 antibody (D11G2, #8235), Rabbit monoclonal anti-Rab5 (C8B1, #3547), and rabbit monoclonal anti-Rab7 (D95F2, #936 7) primary antibodies were purchased from Cell Signaling Technology, Inc. (Danvers, MA, USA). Mouse monoclonal anti-β-actin 2A3 (sc-517582), mouse monoclonal anti-pANXA2 antibody (11.Tyr 24) (sc-135752), rabbit polyclonal anti-NOS2 (C-19, sc-649), rabbit polyclonal anti-ARG1 (H-52, sc-20150) antibodies, and protein A/G agarose were purchased from Santa Cruz Biotechnology, Inc. (Dallas, TX, USA). […]
MST was performed using the Monolith NT.115 (Nanotemper Technologies, Munich, Germany). […] Fluorescence was assessed in MST-2 buffer (50 mM Tris-HCl, pH 7.4; 150 mM NaCl; 10 mM MgCl2). […] The apparent Kd values were calculated from fragment concentration-dependent changes in normalized fluorescence (Fraction Bound) of LS301 after 5 seconds of thermophoresis based on mass action law using the MO Affinity Analysis v2.3 software.

CC1(C)C(/C=C/C=C/C=C/C=C2/N(CCC(=O)N[C@@H]3CSSC[C@@H](C(=O)N[C@@H](CCCCN)C(=O)O)NC(=O)[C@@H]4CCCN4C(=O)[C@H](CO)NC(=O)[C@H](CC(=O)O)NC(=O)[C@H](CCCNC(=N)N)NC(=O)CNC3=O)c3ccc4ccccc4c3C2(C)C)=[N+](CCC(=O)[O-])c2ccc3ccccc3c21 [LS301, cypate-cyclic (DCys-Gly-Arg-Asp-Ser-Pro-Cys)-Lys-OH] (X1-[dC]GRDSPCK-OH; disulfide 1-7)
Kd: 0.389 ± 0.015 nM
